From patent US8906644B2, “Method for culture of hepatocytes” (The University of Tokyo, priority 2009, dated 2014)

Target: T1, drug transporter (MRP2) (Rattus norvegicus, UniProt Q63120)
T1 construct: endogenous in cells; host or cells: primary hepatocytes in collagen gel sandwich culture on a PDMS membrane device, with a polystyrene device for comparison
Assay: Measurement of MRP2 activity with CDCF (Bile Excretion Index) in collagen gel sandwiched hepatocytes
Type: in vitro ADME
Settings: Day 4 of culture, 5 μM CDCF, 5 minutes
Description: Using the collagen gel sandwiched hepatocytes that were cultured on the PDMS membrane culturing device prepared in Example 1 and forming bile canaliculi, the activity of a drug transporter (MRP2) was measured by incorporation of 5-(and-6)-carboxy-2′,7′-dichlorofluorescein (CDCF) as follows according to a Non-patent Document (Liu X et al., Am J Physiol, 1999, vol. 277, pp. 12-21). Further, hepatocytes cultured in a conventional polystyrene culturing device were used for comparison.
Ca/Mg(+) HBSS was prepared before use by mixing 50 mL of HBSS (Invitrogen, 14175-079), 500 μL of 14 g/L CaCl2 and 500 μL of 10 g/L MgCl2/6H2O together. In terms of the CDCF solution, a 5 μM CDCF solution was prepared before use by using 1 mM CDCF (in dimethyl sulfoxide: Molecular Probes, C-369) and Ca/Mg(+) HBSS, and the prepared solution was incubated in a water bath at 37° C. […]
Two hepatocyte cultures were prepared 4 days after the beginning of the culture (3 days after the deposition of the gel). […] A 100-μL aliquot was collected from each supernatant and subjected to measurement with a fluorescence microplate reader with excitation at 492 nm and fluorescence at 530 nm to quantify the amount of CDCF. […] The Bile Excretion Index (BEI) was calculated according to the following equation based on the fluorescent brightness per protein amount (Accumulation).

T1 sequence (Q63120 whole entry): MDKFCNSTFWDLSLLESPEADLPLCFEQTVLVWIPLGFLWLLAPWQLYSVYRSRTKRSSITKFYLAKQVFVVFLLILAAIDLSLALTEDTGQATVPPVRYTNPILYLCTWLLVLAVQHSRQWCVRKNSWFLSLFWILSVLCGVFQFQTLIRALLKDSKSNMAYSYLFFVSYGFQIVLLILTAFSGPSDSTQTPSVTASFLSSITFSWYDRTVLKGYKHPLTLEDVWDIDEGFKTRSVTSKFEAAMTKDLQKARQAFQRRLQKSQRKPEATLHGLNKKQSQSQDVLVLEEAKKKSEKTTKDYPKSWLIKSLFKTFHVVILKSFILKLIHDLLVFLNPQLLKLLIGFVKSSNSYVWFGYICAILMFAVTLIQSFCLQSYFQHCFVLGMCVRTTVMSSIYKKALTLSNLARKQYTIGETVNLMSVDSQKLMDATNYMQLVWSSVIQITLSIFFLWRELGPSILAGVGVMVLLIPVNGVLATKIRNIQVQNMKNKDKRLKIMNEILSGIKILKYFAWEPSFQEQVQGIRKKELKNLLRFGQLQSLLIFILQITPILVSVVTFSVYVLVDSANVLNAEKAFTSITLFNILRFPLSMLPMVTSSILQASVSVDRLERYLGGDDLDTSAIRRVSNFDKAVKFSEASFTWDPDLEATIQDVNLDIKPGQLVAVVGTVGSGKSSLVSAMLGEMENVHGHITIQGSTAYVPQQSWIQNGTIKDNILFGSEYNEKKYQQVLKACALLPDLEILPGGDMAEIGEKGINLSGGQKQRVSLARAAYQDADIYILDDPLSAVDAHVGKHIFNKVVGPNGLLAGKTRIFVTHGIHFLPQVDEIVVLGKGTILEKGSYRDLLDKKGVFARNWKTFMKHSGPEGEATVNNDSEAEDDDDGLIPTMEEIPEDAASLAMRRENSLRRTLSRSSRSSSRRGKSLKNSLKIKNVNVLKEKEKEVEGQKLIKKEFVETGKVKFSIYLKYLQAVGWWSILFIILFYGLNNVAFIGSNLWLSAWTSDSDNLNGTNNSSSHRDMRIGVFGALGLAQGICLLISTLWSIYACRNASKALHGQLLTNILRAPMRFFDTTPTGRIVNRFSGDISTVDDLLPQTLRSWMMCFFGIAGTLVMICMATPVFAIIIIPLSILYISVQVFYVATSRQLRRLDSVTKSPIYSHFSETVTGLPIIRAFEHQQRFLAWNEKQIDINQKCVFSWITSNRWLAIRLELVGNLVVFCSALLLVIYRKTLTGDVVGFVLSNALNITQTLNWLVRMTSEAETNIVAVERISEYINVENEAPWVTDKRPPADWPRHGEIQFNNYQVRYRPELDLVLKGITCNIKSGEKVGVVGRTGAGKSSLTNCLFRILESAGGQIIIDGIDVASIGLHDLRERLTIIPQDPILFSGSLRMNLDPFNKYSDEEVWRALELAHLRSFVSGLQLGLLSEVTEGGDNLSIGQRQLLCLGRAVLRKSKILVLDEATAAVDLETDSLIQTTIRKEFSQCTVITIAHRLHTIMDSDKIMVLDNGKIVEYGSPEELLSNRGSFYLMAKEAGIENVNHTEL

## 5-(and-6)-carboxy-2′,7′-dichlorofluorescein [CDCF]
Collagen gel sandwich on conventional polystyrene (PS) substrate
  Bile Excretion Index (BEI): about 20%
Collagen gel sandwich on gas-permeable PDMS membrane culturing device
  Bile Excretion Index (BEI): about 40%
